Experimental data: ChEMBL document CHEMBL4371025, “Discovery and evaluation of novel FAAH inhibitors in neuropathic pain model” (Bioorg Med Chem Lett, 2019)
pIC50: −log10 of the molar value. The source made the active and inactive calls. The calls are words filed in the database; no cut-off is given here.

Legend:
[1] = Intrinsic metabolic stability in human liver microsomes assessed as metabolic turnover rate per mg protein at 1 uM preincubated for 5 mins followed by NADPH cofactor addition and measured after 30 mins by LC-MS/MS analysis; type: ADME, Microsome; settings: 0.5 h
[2] = Intrinsic metabolic stability in rat liver microsomes assessed as metabolic turnover over per mg protein at 1 uM preincubated for 5 mins followed by NADPH cofactor addition and measured after 30 mins by LC-MS/MS analysis; type: ADME, Microsome; settings: 0.5 h
[3] = biological target: T1, Fatty-acid amide hydrolase 1 (Homo sapiens, UniProt O00519); assay: Inhibition of human transmembrane domain deficient FFAH expressed in Escherichia coli using AAMCA as substrate incubated for 1 min measured for 50 mins by fluorescence assay
T1 sequence (O00519 whole entry): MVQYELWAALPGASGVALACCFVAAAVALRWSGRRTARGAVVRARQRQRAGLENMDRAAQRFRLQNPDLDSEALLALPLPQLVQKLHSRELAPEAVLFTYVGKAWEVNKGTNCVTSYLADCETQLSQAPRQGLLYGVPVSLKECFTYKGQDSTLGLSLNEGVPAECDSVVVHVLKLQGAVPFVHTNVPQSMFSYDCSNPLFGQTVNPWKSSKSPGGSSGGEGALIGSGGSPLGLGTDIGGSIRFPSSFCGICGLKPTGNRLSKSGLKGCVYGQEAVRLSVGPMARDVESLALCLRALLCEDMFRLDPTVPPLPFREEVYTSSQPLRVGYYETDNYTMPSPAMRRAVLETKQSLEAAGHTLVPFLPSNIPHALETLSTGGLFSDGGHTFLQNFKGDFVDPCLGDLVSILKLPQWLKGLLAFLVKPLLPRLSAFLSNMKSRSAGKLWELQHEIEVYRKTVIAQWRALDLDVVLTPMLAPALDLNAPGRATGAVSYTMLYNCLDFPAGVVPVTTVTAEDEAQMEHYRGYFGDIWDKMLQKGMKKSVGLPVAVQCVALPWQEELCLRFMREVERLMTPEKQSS

[4] = biological target: T2, Fatty-acid amide hydrolase 1 (Rattus norvegicus, UniProt P97612); assay: Inhibition of rat FFAH expressed in Escherichia coli using AAMCA as substrate incubated for 1 min measured for 50 mins by fluorescence assay
T2 sequence (P97612 whole entry): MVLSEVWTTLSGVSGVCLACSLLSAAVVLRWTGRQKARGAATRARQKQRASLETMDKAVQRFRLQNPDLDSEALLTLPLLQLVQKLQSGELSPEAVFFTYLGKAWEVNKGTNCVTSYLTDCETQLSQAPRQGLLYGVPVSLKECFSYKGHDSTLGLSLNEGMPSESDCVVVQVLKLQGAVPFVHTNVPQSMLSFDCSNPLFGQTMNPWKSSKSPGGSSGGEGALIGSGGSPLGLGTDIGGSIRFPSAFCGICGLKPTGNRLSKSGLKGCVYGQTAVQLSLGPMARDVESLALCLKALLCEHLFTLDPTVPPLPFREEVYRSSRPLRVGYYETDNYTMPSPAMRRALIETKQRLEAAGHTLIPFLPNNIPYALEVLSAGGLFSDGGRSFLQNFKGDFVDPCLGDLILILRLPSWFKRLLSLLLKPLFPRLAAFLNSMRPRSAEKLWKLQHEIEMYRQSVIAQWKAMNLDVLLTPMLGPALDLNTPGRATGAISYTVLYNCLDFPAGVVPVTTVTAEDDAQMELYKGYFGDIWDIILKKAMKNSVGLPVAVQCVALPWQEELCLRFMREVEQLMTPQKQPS

[5] = biological target: T3, Fatty-acid amide hydrolase 1 (Rattus norvegicus) (UniProt P97612); assay: Inhibition of rat FFAH expressed in Escherichia coli at 100 nM using AAMCA as substrate incubated for 1 min measured for 50 mins by fluorescence assay relative to control
T3 sequence (whole entry): T2 sequence (P97612 whole entry)

[6] = Volume of distribution at steady state in Sprague-Dawley rat at 1 mg/kg, iv administered as single dose by LC-MS/MS analysis; type: ADME, organism-based; settings: in vivo, read-out: Vdss
[7] = Cmax in Sprague-Dawley rat at 10 mg/kg, po administered as single dose via gavage by LC-MS/MS analysis; type: ADME, organism-based; parameters: dose 10 mg/kg, route oral; settings: in vivo
[8] = Clearance in Sprague-Dawley rat at 1 mg/kg, iv administered as single dose by LC-MS/MS analysis; type: ADME, organism-based; settings: in vivo
[9] = AUC (0 to 48 hrs) in plasma of Sprague-Dawley rat at 10 mg/kg, po administered as single dose via gavage by LC-MS/MS analysis; type: ADME, organism-based; parameters: time < 48 hr, dose 10 mg/kg, route oral
[10] = Oral bioavailability in Sprague-Dawley rat at 10 mg/kg administered as single dose via gavage by LC-MS/MS analysis; type: ADME, organism-based; settings: in vivo
[11] = Elimination half life in Sprague-Dawley rat at 1 mg/kg, iv administered as single dose by LC-MS/MS analysis; type: ADME, organism-based; settings: in vivo, read-out: beta t1/2 (converted)
[12] = AUC (0 to 48 hrs) in Sprague-Dawley rat at 1 mg/kg, iv administered as single dose by LC-MS/MS analysis; type: ADME, organism-based; parameters: dose 1 mg/kg, time < 48 hr, route intravenous; settings: in vivo
[13] = biological target: T4, Fatty-acid amide hydrolase 1 (Homo sapiens) (UniProt O00519); assay: Substrate activity at human transmembrane domain deficient FFAH expressed in Escherichia coli assessed as parent compound remaining at 2 times IC50 after 60 mins by MS analysis
T4 sequence (whole entry): T1 sequence (O00519 whole entry)

[14] = biological target: T4, Fatty-acid amide hydrolase 1 (Homo sapiens); assay: Reversible inhibition of human transmembrane domain deficient FFAH expressed in Escherichia coli assessed as residual activity at 10 times IC50 using AAMCA as substrate preincubated for 1 hr followed by substrate addition and subsequent 10 fold compound dilution by fluorescence assay relative to control
[15] = biological target: T4, Fatty-acid amide hydrolase 1 (Homo sapiens); assay: Reversible inhibition of human transmembrane domain deficient FFAH expressed in Escherichia coli assessed as residual activity at 10 times IC50 using AAMCA as substrate preincubated for 1 hr followed by substrate addition by fluorescence assay relative to control
[16] = biological target: T4, Fatty-acid amide hydrolase 1 (Homo sapiens); assay: Substrate activity at human transmembrane domain deficient FFAH expressed in Escherichia coli assessed as parent compound remaining at 2 times IC50 measured immediately by MS analysis
[17] = biological target: T4, Fatty-acid amide hydrolase 1 (Homo sapiens); assay: Substrate activity at human transmembrane domain deficient FFAH expressed in Escherichia coli assessed as parent compound remaining at 2 times IC50 after 15 mins by MS analysis
[18] = biological target: T4, Fatty-acid amide hydrolase 1 (Homo sapiens); assay: Substrate activity at human transmembrane domain deficient FFAH expressed in Escherichia coli assessed as parent compound remaining at 2 times IC50 after 30 mins by MS analysis
[19] = Oral bioavailability in Sprague-Dawley rat at 3 mg/kg administered as single dose via gavage by LC-MS/MS analysis; type: ADME, organism-based; settings: in vivo
[20] = AUC (0 to 48 hrs) in Sprague-Dawley rat at 3 mg/kg, po administered as single dose via gavage by LC-MS/MS analysis; type: ADME, organism-based; parameters: dose 3 mg/kg, time < 48 hr, route oral; settings: in vivo
[21] = Cmax in Sprague-Dawley rat at 3 mg/kg, po administered as single dose via gavage by LC-MS/MS analysis; type: ADME, organism-based; parameters: dose 3 mg/kg, route oral; settings: in vivo
[22] = biological target: T3, Fatty-acid amide hydrolase 1 (Rattus norvegicus); assay: Inhibition of rat FFAH expressed in Escherichia coli at 10 uM using AAMCA as substrate incubated for 1 min measured for 50 mins by fluorescence assay relative to control

| SMILES | Drug metabolism [1] [nmol/min/mg] | Drug metabolism [2] [nmol/min/mg] | pIC50 [3] | pIC50 [4] | other results |
| --- | --- | --- | --- | --- | --- |
| O=C(NC1CCC(=Cc2cccc(Oc3ccc(C(F)(F)F)cn3)c2)CC1)c1ccc(-n2nccn2)nc1 (racemic) | 0.09 | 0.04 |  |  |  |
| Nc1ncc(C(=O)NC2CCC(=Cc3cccc(Oc4ccc(C(F)(F)F)cn4)c3)CC2)cc1Cl (racemic) | 0.06 | < 0.04 | 8.40 | 7.28 |  |
| O=C(NC1CCC(=Cc2cccc(Oc3ccc(C(F)(F)F)cn3)c2)CC1)c1cccnc1 (racemic) | 0.06 | 0.06 | 8.66 |  |  |
| O=C(NC1CCC(=Cc2cccc(Oc3ccc(C(F)(F)F)cn3)c2)CC1)c1cc[nH]n1 (racemic) |  |  |  | 6.58 |  |
| Cc1cc(C(=O)NC2CCC(=Cc3cccc(Oc4ccc(C(F)(F)F)cn4)c3)CC2)cnc1N (racemic) | 0.09 | 0.04 |  |  |  |
| O=C(N[C@H]1CC/C(=C/c2cccc(Oc3ccc(C(F)(F)F)cn3)c2)CC1)c1cccnc1 (centres undefined) |  |  | 6.38 |  |  |
| O=C(NC1CCC(=Cc2cccc(Oc3ccc(C(F)(F)F)cn3)c2)CC1)c1ccncc1 (racemic) |  |  |  |  | inhibition [5]: 15% |
| O=C(NC1CCC(=Cc2cccc(Oc3ccc(C(F)(F)F)cn3)c2)CC1)c1ccc(Cl)nc1 (racemic) | 0.06 | 0.04 | 8.29 | 7.09 |  |
| Nc1ccc(C(=O)N[C@H]2CC/C(=C/c3cccc(Oc4ccc(C(F)(F)F)cn4)c3)CC2)cn1 (centres undefined) |  |  | 6.35 |  |  |
| O=C(NC1CCC(=Cc2cccc(Oc3ccc(C(F)(F)F)cn3)c2)CC1)c1ccc(-n2cccn2)nc1 (racemic) | 0.11 | 0.09 | 8.17 | 8.18 | Vd [6]: 4.6 L/kg; Cmax [7]: 90 nM; clearance [8]: 2.4 mL/min/kg; AUC(0-t) at 48 h [9]: 0.9 µM·h; bioavailability [10]: 1.2%; half-life [11]: > 10 h; AUC(0-t) at 48 h [12]: 8 µM·h |
| O=C(Nc1cccnc1)N1CCC(Cc2cccc(Oc3ccc(C(F)(F)F)cn3)c2)CC1 |  |  | 8.59 | 7.94 | Activity [13]: 40.4%; Activity [14]: inactive; Activity [15]: 20%; Activity [16]: 100%; Activity [17]: 77.2%; Activity [18]: 54.4% |
| O=C(NC1CCC(=Cc2cccc(Oc3ccc(C(F)(F)F)cn3)c2)CC1)c1cnc2[nH]ccc2c1 (racemic) | 0.08 | 0.04 |  | 7.76 | Vd [6]: 1 L/kg; clearance [8]: 2.2 mL/min/kg; bioavailability [19]: 7.2%; half-life [11]: 7.3 h; AUC(0-t) at 48 h [12]: 14.3 µM·h; AUC(0-t) at 48 h [20]: 3 µM·h; Cmax [21]: 190 nM |
| O=C(NC1CCC(=Cc2cccc(Oc3ccc(C(F)(F)F)cn3)c2)CC1)c1cccnc1 (centres undefined) |  |  |  |  | inhibition [22]: 60% |
